What was measured:
CD8+ T effectors = experiment: Multi-color flow cytometry of CD8+ T effectors (IFN-γ, perforin, granzyme B); type: in vivo, mice; details: HBsAg restimulation
Experimental: (§1) 4 h later, both inguinal lymph nodes were collected.
With respect to multi-color flow cytometry, a multi-color panel was set up with anti-CD3, anti-CD8, anti-IFN-γ, anti-perforin and anti-granzyme B. After restimulation in vitro by sAg for 24 h or S208-215 for 12 h, following monensin block for 6 h, splenocyte was fixed, penetrated and stained. Data was collected with BD Aria and analyzed with Flowjo (Tree Star, Ashland, USA).

[1] = test system: CD8 T cells co-cultured with peritoneal macrophages or spleen dendritic cells; experiment: Co-culture of treated APCs with purified CD8 T cells; type: cell-based, mice; details: macrophages and DCs co-culture; pcD-S2 with vs without amiloride
Experimental: With respect to co-cultures, pcD-S2 (10 μg/ml) with or without 100 μM amiloride treat APCs, peritoneal macrophage or spleen dendritic cell, were cultured for 2 days. At day 3, purified CD8 T cell (R&D systems, USA) was added into culture with APC:T ratio of 1:5, 1:2, 1:1. At day 8, cells were collected and restimulated with S208-215 (10 μg/ml). PMA+Ionomycin was added as positive control for restimulation.

[2] = test system: Cy5-plasmid+ cells in lymph nodes; experiment: Cy5-pEGFP plasmid entry in vivo, Cy5+ cells in draining lymph nodes by FACS; parameters: species or system C57B/6 mice; details: hind footpad, 4 hrs
Experimental: as §1

[3] = test system: RAW264.7, JAWSII and DC2.4 cell lines; experiment: Cy5-pEGFP plasmid entry and expression in antigen presenting cell lines; type: cell-based
Experimental: (§2) With respect to cell culture and inhibiter treatment, RAW264.7 and DC2.4 were cultured in DMEM/10% FCS, and JAWSII was cultured in DMEM/10% FCS with GMCSF (1000 U/ml, Peprotech, USA). Amiloride (Sigma-Aldrich, USA) was prepared as 10 mM solution and was diluted to 1 mM, 100 uM, 10 uM in DMEM medium before treatment. After culture medium was removed, cells were treated with amiloride, MβCD (5 mM, Sigma) or Fillipin (10 ng/ml, sigma) at 37° C. for 1 h. LPS (10 ng/ml, sigma) or 10 ng/ml DNA in DMEM was added at 37° C. for 0.5 h, after wash, culture medium was added and cells were cultured.
With respect to plasmid preparation and fluorescence conjugation, pEGFP (Clontech, USA) and pcD-S2 plasmid were prepared from DH5a culture, purified by EndoFree Plasmid Maxi Kit (Qiagen, Germany) and endotoxin was below 10 EU/mg by LAL test. Cy5 was conjugated to plasmid with Minis Label IT Kit (Minis, USA) as manual instructed.

HBsAg = experiment: Antibody against HBsAg after footpad immunization; type: in vivo, C57B/6 mice
RAW264.7 = experiment: APC maturation markers and innate cytokine secretion with pcD-S2; type: cell-based; details: pcD-S2 with vs without amiloride
Experimental: as §2

N=C(N)NC(=O)c1nc(Cl)c(N)nc1N [amiloride]
triple positive cells in HBsAg stimulated CD8 response (CD8+ T effectors): triple positive cells could also be observed
percentage of S208-215 specific triple positive CD8 T effectors [1]: significantly increased
percentage of Cy5-plasmid+ cells in lymph nodes (LN) ([2]; 10 μM amiloride): increased
percentage of Cy5-plasmid+ cells in lymph nodes (LN) ([2]; 100 μM amiloride): peaked
percentage of Cy5-plasmid+ cells in lymph nodes (LN) ([2]; 1 mM amiloride): decreased
GFP expression ([3]; 1 mM amiloride pre-treatment, after 3 days culture, vs un-treated cells): significantly higher level of GFP
GFP expression relative to liposome treated cells ([3]; 1 mM amiloride, 3 days): comparable with that of liposome treated cells
uptake of Cy5-labeled pEGFP plasmids ([3]; pre-treated with 1 mM amiloride for 1 h, within 2 hrs, vs un-treated cells): significantly taken up
most effective dose of amiloride for in vivo treatment (HBsAg; antibody and DTH experiments): 1 mM
levels of antibody against HBsAg (HBsAg; footpad immunization, vs pcD-S2 alone, dose dependent): increased
expression of TNF and IFN-γ (RAW264.7; RAW264.7): higher levels of expression of TNF and IFN-γ
expression of maturation markers CD40, CD80 and CD86 (RAW264.7; RAW264.7 in vitro): higher levels of expression of CD40, CD80 and CD86

— patent publication US10206997B2, “Facilitator-DNA combination vaccine” (priority 2011, dated 2019)
